Assays:
Etoposide = compound: COc1cc([C@@H]2c3cc4c(cc3[C@@H](O[C@@H]3O[C@@H]5CO[C@@H](C)O[C@H]5[C@H](O)[C@H]3O)[C@H]3COC(=O)[C@H]23)OCO4)cc(OC)c1O [Etoposide]; conditions: max 10 µM
In short: (§1)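 After 24 hours at 37°C and 5% CO2 in 1536-well plates holding 7.5 μl of DMEM/F12 or RPMI with 10% FBS, cancer cell lines were dosed for 72 hours, with final DMSO typically 0.2%. Viability came from CellTiter-Glo 2.0 luminescence, scaled between the means of blank wells and DMSO wells. A non-linear mixed effects model fitted a two-parameter logistic curve to each dose response to give the single-agent IC50.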

Carboplatin = compound: C1CC(C1)(C(=O)[O-])C(=O)[O-].N.N.[Pt+2] [Carboplatin]; conditions: max 10 µM
In short: as §1

MK-2206 = compound: NC1(c2ccc(-c3nc4ccn5c(=O)[nH]nc5c4cc3-c3ccccc3)cc2)CCC1 [MK-2206]; conditions: max 10 µM
In short: as §1

Selumetinib = compound: Cn1cnc2c(F)c(Nc3ccc(Br)cc3Cl)c(C(=O)NOCCO)cc21 [Selumetinib]; conditions: max 10 µM
In short: as §1

AZD2811 = compound: CCN(CCO)CCCOc1ccc2c(Nc3cc(CC(=O)Nc4cccc(F)c4)[nH]n3)ncnc2c1 [AZD2811]; conditions: max 1 µM
In short: as §1

Venetoclax = compound: CC1(C)CCC(CN2CCN(c3ccc(C(=O)NS(=O)(=O)c4ccc(NCC5CCOCC5)c([N+](=O)[O-])c4)c(Oc4cnc5[nH]ccc5c4)c3)CC2)=C(c2ccc(Cl)cc2)C1 [Venetoclax]; conditions: max 1 µM
In short: as §1

Prexasertib = compound: COc1cccc(OCCCN)c1-c1cc(Nc2cnc(C#N)cn2)n[nH]1 [Prexasertib]; conditions: max 1 µM
In short: as §1

AZD4320 = compound: CN(CC[C@H](CSC1=CC=CC=C1)NC2=C(C=C(C=C2)S(=O)(=O)NC(=O)C3=CC=C(C=C3)N4CCC(CC4)[C@H](C5=CC=CC=C5C6=CC=C(C=C6)Cl)O)S(=O)(=O)C(F)(F)F)CCO [AZD4320]; conditions: max 1 µM
In short: as §1

AZD5991 = compound: Cc1c2c(nn1C)CSCc1cc(n(C)n1)CSc1cc(c3ccccc3c1)OCCCc1c(C(=O)O)n(C)c3c-2c(Cl)ccc13 [AZD5991]; conditions: max 1 µM
In short: as §1

AZD8186 = compound: C[C@@H](Nc1cc(F)cc(F)c1)c1cc(C(=O)N(C)C)cc2c(=O)cc(N3CCOCC3)oc12 [AZD8186]; conditions: max 10 µM
In short: as §1

Dasatinib = compound: CC1=C(C(=CC=C1)Cl)NC(=O)C2=CN=C(S2)NC3=CC(=NC(=N3)C)N4CCN(CC4)CCO [Dasatinib]; conditions: max 2 µM
In short: as §1

Taselisib = compound: Cc1nc(-c2cn3c(n2)-c2ccc(-c4cnn(C(C)(C)C(N)=O)c4)cc2OCC3)n(C(C)C)n1 [Taselisib]; conditions: max 10 µM
In short: as §1

AZD1775 = compound: C=CCn1c(=O)c2cnc(Nc3ccc(N4CCN(C)CC4)cc3)nc2n1-c1cccc(C(C)(C)O)n1 [AZD1775]; conditions: max 3 µM
In short: as §1

AZD1390 = compound: CC(C)n1c(=O)n(C)c2cnc3cc(F)c(-c4ccc(OCCCN5CCCCC5)nc4)cc3c21 [AZD1390]; conditions: max 0.3 µM
In short: as §1

SRA737 = compound: N#Cc1cnc(Nc2cc(NC[C@H]3CNCCO3)c(C(F)(F)F)cn2)cn1 [SRA737]; conditions: max 10 µM
In short: as §1

AZD5363 = compound: C1CN(CCC1(C(=O)N[C@@H](CCO)C2=CC=C(C=C2)Cl)N)C3=NC=NC4=C3C=CN4 [AZD5363]; conditions: max 10 µM
In short: as §1

Doxorubicin = compound: COc1cccc2c1C(=O)c1c(O)c3c(c(O)c1C2=O)C[C@@](O)(C(=O)CO)C[C@@H]3O[C@H]1C[C@H](N)[C@H](O)[C@H](C)O1 [Doxorubicin]; conditions: max 1 µM
In short: as §1

Gefitinib = compound: COc1cc2ncnc(Nc3ccc(F)c(Cl)c3)c2cc1OCCCN1CCOCC1 [Gefitinib]; conditions: max 10 µM
In short: as §1

Alisertib = compound: COc1cc(Nc2ncc3c(n2)-c2ccc(Cl)cc2C(c2c(F)cccc2OC)=NC3)ccc1C(=O)O [Alisertib]; conditions: max 10 µM
In short: as §1

SG3199 = compound: CC1=CN2[C@@H](C1)C=NC3=CC(=C(C=C3C2=O)OC)OCCCCCOC4=C(C=C5C(=C4)N=C[C@@H]6CC(=CN6C5=O)C)OC [SG3199]; conditions: max 0.001 µM
In short: as §1

Savolitinib = compound: C[C@@H](c1ccc2nccn2c1)n1nnc2ncc(-c3cnn(C)c3)nc21 [Savolitinib]; conditions: max 1 µM
In short: as §1

Gemcitabine = compound: Nc1ccn([C@@H]2O[C@H](CO)[C@@H](O)C2(F)F)c(=O)n1 [Gemcitabine]; conditions: max 0.3 µM
In short: as §1

Lapatinib = compound: CS(=O)(=O)CCNCc1ccc(-c2ccc3ncnc(Nc4ccc(OCc5cccc(F)c5)c(Cl)c4)c3c2)o1 [Lapatinib]; conditions: max 10 µM
In short: as §1

5-Fluorouracil = compound: O=c1[nH]cc(F)c(=O)[nH]1 [5-Fluorouracil]; conditions: max 20 µM
In short: as §1

SN-38 = compound: CCc1c2c(nc3ccc(O)cc13)-c1cc3c(c(=O)n1C2)COC(=O)[C@]3(O)CC [SN-38]; conditions: max 0.3 µM
In short: as §1

AZD0156 = compound: CN(C)CCCOc1ccc(-c2ccc3ncc4c(c3c2)n(C2CCOCC2)c(=O)n4C)cn1 [AZD0156]; conditions: max 3 µM
In short: as §1

AZD6738 = compound: C[C@@H]1COCCN1C2=NC(=NC(=C2)C3(CC3)[S@](=N)(=O)C)C4=C5C=CNC5=NC=C4 [AZD6738]; conditions: max 10 µM
In short: as §1

Palbociclib = compound: CC(=O)c1c(C)c2cnc(Nc3ccc(N4CCNCC4)cn3)nc2n(C2CCCC2)c1=O [Palbociclib]; conditions: max 10 µM
In short: as §1

Crizotinib = compound: C[C@@H](Oc1cc(-c2cnn(C3CCNCC3)c2)cnc1N)c1c(Cl)ccc(F)c1Cl [Crizotinib]; conditions: max 10 µM
In short: as §1

Paclitaxel = compound: CC(=O)O[C@H]1C(=O)[C@@]2(C)[C@H]([C@H](OC(=O)c3ccccc3)[C@]3(O)C[C@H](OC(=O)[C@H](O)[C@@H](NC(=O)c4ccccc4)c4ccccc4)C(C)=C1C3(C)C)[C@]1(OC(C)=O)CO[C@@H]1C[C@@H]2O [Paclitaxel]; conditions: max 3 µM
In short: as §1

AZD5153 = compound: COc1nnc2ccc(N3CCC(c4ccc(OCCN5CCN(C)C(=O)[C@H]5C)cc4)CC3)nn12 [AZD5153]; conditions: max 1 µM
In short: as §1

Olaparib = compound: O=C(c1cc(Cc2n[nH]c(=O)c3ccccc23)ccc1F)N1CCN(C(=O)C2CC2)CC1 [Olaparib]; conditions: max 10 µM
In short: as §1

AZD7648 = compound: Cc1cc2ncnn2cc1Nc1ncc2c(n1)n(C1CCOCC1)c(=O)n2C [AZD7648]; conditions: max 10 µM
In short: as §1

[1] = compound: O=C(Nc1ccc2[nH]nc(-c3ccncc3)c2c1)[C@@H]1CCN(CC(=O)N2CCN(c3ccc(-c4ncccn4)cc3)CC2)C1; conditions: max 5 µM
In short: as §1

Trametinib = compound: CC(=O)Nc1cccc(-n2c(=O)n(C3CC3)c(=O)c3c(Nc4ccc(I)cc4F)n(C)c(=O)c(C)c32)c1 [Trametinib]; conditions: max 1 µM
In short: as §1

Row | Cell Line | IC50, cell viability 72 h (Etoposide) | IC50, cell viability 72 h (Carboplatin) | IC50, cell viability 72 h (MK-2206) | IC50, cell viability 72 h (Selumetinib) | IC50, cell viability 72 h (AZD2811) | IC50, cell viability 72 h (Venetoclax) | IC50, cell viability 72 h (Prexasertib) | IC50, cell viability 72 h (AZD4320) | IC50, cell viability 72 h (AZD5991) | IC50, cell viability 72 h (AZD8186) | IC50, cell viability 72 h (Dasatinib) | IC50, cell viability 72 h (Taselisib) | IC50, cell viability 72 h (AZD1775) | IC50, cell viability 72 h (AZD1390) | IC50, cell viability 72 h (SRA737) | IC50, cell viability 72 h (AZD5363) | IC50, cell viability 72 h (Doxorubicin) | IC50, cell viability 72 h (Gefitinib) | IC50, cell viability 72 h (Alisertib) | IC50, cell viability 72 h (SG3199) | IC50, cell viability 72 h (Savolitinib) | IC50, cell viability 72 h (Gemcitabine) | IC50, cell viability 72 h (Lapatinib) | IC50, cell viability 72 h (5-Fluorouracil) | IC50, cell viability 72 h (SN-38) | IC50, cell viability 72 h (AZD0156) | IC50, cell viability 72 h (AZD6738) | IC50, cell viability 72 h (Palbociclib) | IC50, cell viability 72 h (Crizotinib) | IC50, cell viability 72 h (Paclitaxel) | IC50, cell viability 72 h (AZD5153) | IC50, cell viability 72 h (Olaparib) | IC50, cell viability 72 h (AZD7648) | IC50, cell viability 72 h [1] | IC50, cell viability 72 h (Trametinib)
1 | SK-N-AS (Neuroblastoma) | > 10000 nM | > 10000 nM | > 10000 nM | > 10000 nM | > 1000 nM | > 1000 nM | 10 nM | > 1000 nM | > 1000 nM | > 10000 nM | > 2000 nM | > 10000 nM | 1000 nM | > 300 nM | 8030 nM | > 10000 nM | > 1000 nM | > 10000 nM | 780 nM | > 1 nM | > 1000 nM | 232 nM | > 10000 nM | > 20000 nM | 81.2 nM | > 3000 nM | 2940 nM | > 10000 nM | > 10000 nM | 299 nM | > 1000 nM | > 10000 nM | > 10000 nM | > 5000 nM | 126 nM
2 | SKN (Other Solid Carcinomas) | > 10000 nM | > 10000 nM | > 10000 nM | > 10000 nM | > 1000 nM | > 1000 nM | > 1000 nM | > 1000 nM | > 1000 nM | 1840 nM | 179 nM | 2870 nM | > 3000 nM | > 300 nM | > 10000 nM | 5640 nM | > 1000 nM | > 10000 nM | > 10000 nM | > 1 nM | > 1000 nM | > 300 nM | > 10000 nM | > 20000 nM | > 300 nM | > 3000 nM | > 10000 nM | > 10000 nM | > 10000 nM | 95.3 nM | 446 nM | > 10000 nM | > 10000 nM | > 5000 nM | > 1000 nM
3 | SNU-387 (Hepatocellular Carcinoma) | > 10000 nM | > 10000 nM | > 10000 nM | > 10000 nM | > 1000 nM | > 1000 nM | 555 nM | > 1000 nM | > 1000 nM | 8360 nM | > 2000 nM | > 10000 nM | 1030 nM | > 300 nM | > 10000 nM | > 10000 nM | > 1000 nM | > 10000 nM | > 10000 nM | > 1 nM | > 1000 nM | > 300 nM | > 10000 nM | > 20000 nM | > 300 nM | > 3000 nM | > 10000 nM | > 10000 nM | > 10000 nM | 27.4 nM | > 1000 nM | > 10000 nM | > 10000 nM | > 5000 nM | 583 nM
4 | SW872 (Other Solid Carcinomas) | 6820 nM | > 10000 nM | > 10000 nM | > 10000 nM | > 1000 nM | > 1000 nM | 156 nM | > 1000 nM | > 1000 nM | > 10000 nM | > 2000 nM | 8840 nM | > 3000 nM | > 300 nM | > 10000 nM | > 10000 nM | 784 nM | > 10000 nM | > 10000 nM | > 1 nM | > 1000 nM | 69.1 nM | > 10000 nM | 8430 nM | 20.9 nM | > 3000 nM | > 10000 nM | > 10000 nM | > 10000 nM | 210 nM | 793 nM | > 10000 nM | > 10000 nM | > 5000 nM | > 1000 nM
5 | SW982 (Other Solid Carcinomas) | 789 nM | > 10000 nM | > 10000 nM | > 10000 nM | 444 nM | > 1000 nM | 91.3 nM | > 1000 nM | > 1000 nM | 4650 nM | 68 nM | 2620 nM | 1140 nM | > 300 nM | > 10000 nM | > 10000 nM | 80.4 nM | > 10000 nM | 1040 nM | > 1 nM | > 1000 nM | 13.6 nM | > 10000 nM | 11300 nM | 9.38 nM | > 3000 nM | 5530 nM | 4390 nM | 3590 nM | 6.45 nM | 63.3 nM | > 10000 nM | > 10000 nM | 2850 nM | 702 nM
